In patent US8299056B2 (Signal Pharmaceuticals, LLC, priority 2008, dated 2012):

Molecular target: T1, Syk (Homo sapiens, UniProt P43405)
T1 construct: purchased Carna Biosciences
Assay: Syk HTRF assay
Assay type: biochemical
Conditions: IC50 activity level, read-out: Activity Level
Method in brief: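 Read-out is the 665 nm/615 nm time-resolved fluorescence ratio after EDTA stop and Eu-anti-phosphotyrosine plus streptavidin-DyLight 647 detection. Reaction ran 1 h at room temperature with start mix of 87.5 μM ATP and 80 nM substrate peptide in pH 7.6 HEPES/MgCl2 buffer.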

Row | SMILES | IC50
1 | CNC(=O)c1ccc(Nc2nc3cccc(NC4CCOCC4)n3n2)cc1 [Example 456, N-methyl-4-(5-(tetrahydro-2H-pyran-4-ylamino)-[1,2,4]triazolo[1,5-a]pyridin-2-ylamino)benzamide] | 1000 to 10000 nM
2 | Nc1noc2ccc(-c3cccc4nc(Nc5ccccc5)nn34)cc12 [Example 457, 5-(2-(phenylamino)-[1,2,4]triazolo[1,5-a]pyridin-5-yl)benzo[d]isoxazol-3-amine] | 0.005 to 250 nM

Further lines, results first:

Row | IC50 | SMILES
3 | 1000 to 10000 nM | c1cc(NC2CCCNC2)n2nc(Nc3ccc4c(c3)CNC4)nc2c1 (stereo in doubt) [Example 448, (R)-N^2-(isoindolin-5-yl)-N^5-(piperidin-3-yl)-[1,2,4]triazolo[1,5-a]pyridin-2,5-diamine]
4 | 250 to 500 nM | c1ccc(Nc2nc3cccc(CC4CCCNC4)n3n2)cc1 (stereo not shown) [Example 478, N-phenyl-5-(piperidin-3-ylmethyl)-[1,2,4]triazolo[1,5-a]pyridin-2-amine]

Same assay, conditions: activity levels A-D, read-out: Activity Level (IC50 in the Syk HTRF assay)

Row | IC50 | SMILES
5 | 0.005 to 250 nM | O=C1Cc2ccc(Nc3nc4cccc(N[C@H]5CC[C@@H](O)CC5)n4n3)cc2N1 [Example 238, cis-6-(5-(4-hydroxycyclohexylamino)-[1,2,4]triazolo[1,5-a]pyridin-2-ylamino)indolin-2-one]
6 | 1000 to 10000 nM | FC(F)(F)c1ccc(Nc2nc3cccc(CN4CCOCC4)n3n2)cc1 [Example 308, 5-(morpholinomethyl)-N-(4-(trifluoromethyl)phenyl)-[1,2,4]triazolo[1,5-a]pyridin-2-amine]
7 | 1000 to 10000 nM | O[C@H]1CC[C@@H](Nc2cccc3nc(Nc4ccncc4)nn23)CC1 [Example 389, cis-4-(2-(pyridin-4-ylamino)-[1,2,4]triazolo[1,5-a]pyridin-5-ylamino)cyclohexanol]
8 | 0.005 to 250 nM | O=C1CN(Cc2cccc3nc(Nc4cnc5[nH]ccc5c4)nn23)CCN1 [Example 229, 4-((2-(1H-pyrrolo[2,3-b]pyridin-5-ylamino)-[1,2,4]triazolo[1,5-a]pyridin-5-yl)methyl)piperazin-2-one]
9 | 500 to 1000 nM | N#Cc1cc(Nc2nc3cccc(N[C@H]4CC[C@@H](O)CC4)n3n2)ccn1 [Example 256, cis-4-(5-(4-hydroxycyclohexylamino)-[1,2,4]triazolo[1,5-a]pyridin-2-ylamino)picolinonitrile]

Same assay, conditions: read-out: Activity Level (Syk HTRF assay IC50)

Row | IC50 | SMILES
10 | 0.005 to 250 nM | Cc1nc2cc(Nc3nc4cccc(-c5ccccc5)n4n3)ccc2[nH]1 [compound 46, N-(2-methyl-1H-benzo[d]imidazol-5-yl)-5-phenyl-[1,2,4]triazolo[1,5-a]pyridin-2-amine]
11 | 0.005 to 250 nM | Fc1cccc(-c2cccc3nc(Nc4ccc5[nH]ncc5c4)nn23)c1 [compound 2, 5-(3-fluorophenyl)-N-(1H-indazol-5-yl)-[1,2,4]triazolo[1,5-a]pyridin-2-amine]
12 | 0.005 to 250 nM | CN(c1cccc2nc(Nc3ccc4c(c3)NC(=O)C4(C)C)nn12)C1CCOC1 (stereo in doubt) [compound 121, (S)-3,3-dimethyl-6-(5-(methyl(tetrahydrofuran-3-yl)amino)-[1,2,4]triazolo[1,5-a]pyridin-2-ylamino)indolin-2-one]
13 | 0.005 to 250 nM | CN(C)Cc1nc2ccc(Nc3nc4cccc(-c5cccc(F)c5)n4n3)cc2[nH]1 [compound 1, N-(2-((dimethylamino)methyl)-1H-benzo[d]imidazol-6-yl)-5-(3-fluorophenyl)-[1,2,4]triazolo[1,5-a]pyridin-2-amine]
14 | 1000 to 10000 nM | N#Cc1ccc(-c2cccc3nc(Nc4ccccc4)nn23)cc1 [compound 76, 4-(2-(phenylamino)-[1,2,4]triazolo[1,5-a]pyridin-5-yl)benzonitrile]
15 | 0.005 to 250 nM | CCn1nc(C)c2ccc(Nc3nc4cccc(N[C@H]5CC[C@@H](O)CC5)n4n3)cc21 [Example 197, cis-4-(2-(1-ethyl-3-methyl-1H-indazol-6-ylamino)-[1,2,4]triazolo[1,5-a]pyridin-5-ylamino)cyclohexanol]
16 | 0.005 to 250 nM | Nc1ccc2cc(Nc3nc4cccc(-c5ccccc5)n4n3)ccc2n1 [compound 17]
